Experimental findings from patent US20240083944A1 (priority 2021, published 2024) are described below.

The subject of series [1] is SARS-CoV-2 pseudotyped HIV-1 virions, B.1.1.7 (Alpha).
Another series has as its system SARS-CoV-2. Kind of series: Mouse Efficacy Model. Format: in vivo, male K18-hACE2 mice. The note with it: 100 mg/kg (tid) for three days, mice infected with SARS-CoV-2.
The nature of series [2]: Pharmacokinetic analysis in mouse. Format: in vivo. The note with it: 3 mg/kg; for half-life: in vivo. An excerpt: In one embodiment, the multimeric binding complex additionally comprises a half-life extending moiety. References herein to half-life extending moieities refer to any moiety capable of extending the half-life of the resultant multimeric binding complex in vivo when compared to the half-life of said multimeric binding complex in the absence of said half-life extending moiety.

Starred links: 1 amine or outer side, 2 acyl side, 3 side chain; linkers in the order of their positions; H or OH if unused. Positions of bridges follow the written chain, without caps; N, C: chain ends. Non-standard residues stand in square brackets, D forms with d. Chains are numbered I, II in the order given. X3 = O=C(CCCc1ccc(I)cc1)NCCOCCOCCOCCOCCOCCOCCOCCOCCOCCOCCn1cc(CCC(=O)NC(COCCC(=O)NCCOCCOCCOCCOCCOCCOCCOCCOCCOCCOCCn2cc(CCC(=O)[*:1])nn2)(COCCC(=O)NCCOCCOCCOCCOCCOCCOCCOCCOCCOCCOCCn2cc(CCC(=O)[*:2])nn2)COCCC(=O)NCCOCCOCCOCCOCCOCCOCCOCCOCCOCCOCCn2cc(CCC(=O)[*:3])nn2)nn1; X2 = O=C(CCOCCN(CCOCCC(=O)NCCOCCOCCOCCOCCOCCOCCOCCOCCOCCOCCn1cc(CCC(=O)[*:2])nn1)CCOCCC(=O)NCCOCCOCCOCCOCCOCCOCCOCCOCCOCCOCCn1cc(CCC(=O)[*:3])nn1)NCCOCCOCCOCCOCCOCCOCCOCCOCCOCCOCCn1cc(CCC(=O)[*:1])nn1; X1 = C(c1nc(C[*:2])nc(C[*:3])n1)[*:1]; hArg = N=C(N)NCCCC[C@H](N)C(=O)O; tBuAla = CC(C)(C)C[C@H](N)C(=O)O; Agb = N=C(N)NCC[C@H](N)C(=O)O

In series [1], “I: Ac-CPYVAG[Agb][dA]TCL[tBuAla]CK-NH2 / II: Ac-CPYVAG[Agb][dA]TCL[tBuAla]CK-NH2 / III: Ac-CPYVAG[Agb][dA]TCL[tBuAla]CK-NH2 (linker I:1-I:10-I:13, II:1-II:10-II:13, III:1-III:10-III:13 via X1; linker I:14-II:14-III:14 via X2) [BCY17021]” registered an IC50 of 0.3 nM. The “total viral RNA in nasal turbinate” value with SARS-CoV-2 (FIG. 4 (A)) is recorded as “reduction of total viral RNA in nasal turbinate”. Also, the “subgenomic RNA in nasal turbinate” value with SARS-CoV-2 (FIG. 4 (B)) is given as “reduction of subgenomic RNA in nasal turbinate”. In the series on SARS-CoV-2 (FIG. 4 (C)), the “total viral RNA in lung” value is listed as “reduction of total viral RNA in lung”. In the series with SARS-CoV-2 (FIG. 4 (D)), the “subgenomic RNA in lung” value is reported as “reduction of subgenomic RNA in lung”.
In series [2], “I: Ac-CPYVAG[hArg][dA]TCL[tBuAla]CK-NH2 / II: Ac-CPYVAG[hArg][dA]TCL[tBuAla]CK-NH2 / III: Ac-CPYVAG[hArg][dA]TCL[tBuAla]CK-NH2 (linker I:1-I:10-I:13, II:1-II:10-II:13, III:1-III:10-III:13 via X1; linker I:14-II:14-III:14 via X2) [BCY18208]” showed a half-life of 0.3 h.
Consider “I: Ac-CPYVAG[hArg][dA]TCL[tBuAla]CK-NH2 / II: Ac-CPYVAG[hArg][dA]TCL[tBuAla]CK-NH2 / III: Ac-CPYVAG[hArg][dA]TCL[tBuAla]CK-NH2 (linker I:1-I:10-I:13, II:1-II:10-II:13, III:1-III:10-III:13 via X1; linker I:14-II:14-III:14 via X3) [BCY19602]”, for which, in series [2] (BCY19602 versus BCY18208 (no half-life extending moiety)), the half-life improvement turned out to be 10 fold. In addition, the half-life in series [2] was 3.1 h.

What is called IC50 is the concentration at which inhibition is half-maximal. One may read the half-life as how long it takes for the measured level to halve. Low readings indicate rapid decline, high ones slow decline.
